Laboratory results as given in paper PMC10861593, “Kisspeptin-10 binding to Gpr54 in osteoclasts prevents bone loss by activating Dusp18-mediated dephosphorylation of Src” (Nature Communications, 2024).
Residue numbers refer to the chain shown, from its start. In names and notes the source's numbering stands.

B1: mouse Gpr54^336–342 peptide (peptide, UniProt Q91V45 336-342, looked up)
peptide: RVCPCCR
notes: mouse Gpr54 (Kiss1 receptor), residues 336-342, said to correspond to the RxxPxxR motif; also called peptide of Gpr54^336–342 (RxxPxxR motif); source: synthetic peptide
B2: His-DUSP18 (enzyme, human, UniProt Q8NEJ0 1-188, looked up)
chain: MTAPSCAFPVQFRQPSVSGLSQITKSLYISNGVAANNKLMLSSNQITMVINVSVEVVNTLYEDIQYMQVPVADSPNSRLCDFFDPIADHIHSVEMKQGRTLLHCAAGVSRSAALCLAYLMKYHAMSLLDAHTWTKSCRPIIRPNSGFWEQLIHYEFQLFGKNTVHMVSSPVGMIPDIYEKEVRLMIPL
notes: full-length WT human DUSP18, in pMCSG7; In the SPR it is called 'DUSP18 protein'; removal of the tag is not mentioned; also called DUSP18 protein; WT-DUSP18; source: E. coli, purified; not shown: His, N-terminal, kept
B3: DUSP18 (C104S): enzymatically dead DUSP18 (C104S) mutant (protein)
chain: B2 chain with C104S
modifications: left off: Flag, C-terminal, kept
notes: enzymatically dead DUSP18 (C104S) mutant

Columns and labels:
Src / DUSP18 interaction = assay: Co-IP/IB: interaction of Src with DUSP18 in transfected 293T cells; assay type: cell-based
Procedure: Anti-Flag IP derived from 293 T cells transfected with HA-Src and either DUSP18-Flag or DUSP18 (C104S)-Flag constructs with or without Kp-10 treatment for 20 min were lysed and subjected to anti-FLAG IP (b). Phosphatase reaction products using His-DUSP18 and His-DUSP18 (C104S) proteins purified from E. coli and SRC proteins purified from Sf9 insect cells (c) and quantification of protein levels (d). Anti-Src IP derived from RAW264.7 cells treated with or without Kp-10 treatment for 20 min were lysed and subjected to anti-Src IP (e) and quantification of protein levels (f). g, h Src and Dusp18 co-localization was analyzed by IF staining in primary pre-osteoclasts treated with 10 nM Kp-10 treatment for 20 min. Representative images of endogenous Dusp18 and Src were shown by TIRF microscopy (g), and MOC was used to quantify the degree of colocalization in cells from multiple images taken randomly (h). Scale bar, 50 µm. i–m IB and quantification of protein levels analysis. Anti-Flag IP derived from 293 T cells transfected with HA-Src, GPR54-myc, and either DUSP18-Flag or DUSP18 (C104S)-Flag constructs after Kp-10 treatment for 20 min (i) and quantification of protein levels (j, k). […] Scale bars, 125 µm (n), and pits depth were quantified by confocal microscopy (o). […] P values were determined by one-way ANOVA analysis (d, f, j, k, m, o) or by two-tailed Student’s t-test (h). […]

GPR54 / Src interaction = assay: Co-IP: interaction of GPR54 with Src in transfected 293T cells; assay type: cell-based, human; details: inhibitor 1 h (U73122 10 µM, Staurosporine 0.25 µM, LY3214996 10 µM, KN-93 10 µM, Saracatinib 10 µM), then 10 nM Kp-10 20 min
Procedure: (§1) Data represent means ± SEM. P values were determined by one-way ANOVA analysis (b, c, e, g, i, k). Representative results were obtained from at least three independent experiments. Source data are provided as a Source Data file.
(§2) Whole-cell proteins were extracted using 1x RIPA buffer (25 mM Tris, pH7.5, 150 mM NaCl, 0.5% Sodium deoxycholate, 1% Triton-X-100) supplemented with protease inhibitors (Complete Mini, Roche) and phosphatase inhibitors (phosphatase inhibitor cocktail set I and II, Calbiochem). Immunoprecipitation and immunoblotting with indicated antibodies were performed as described in Supplementary Table 1. Image Jsoftware (V1.52) was used for quantification analysis. Uncropped and unprocessed blots are presented in the Supplementary Information file.
Error bars are ± SEM. […] Source data are provided as a Source Data file.

[1] = system: DUSP18 / GPR54 interaction; assay: Co-IP: interaction of DUSP18 with GPR54 in transfected 293T cells; assay type: cell-based, human; details: 293T; inhibitor 1 h (U73122 10 µM, Staurosporine 0.25 µM, LY3214996 10 µM, KN-93 10 µM, Saracatinib 10 µM), then 10 nM Kp-10 20 min
Procedure: as §1, §2
Supplementary Fig. 6 a, b IB and quantification of protein levels analysis. […] Error bars are ± SEM. P-values were determined by two-tailed Student’s t-test (b, e) or by one-way ANOVA analysis (h, j). *P <0.05, **P <0.01, ***P <0.001, ****P <0.0001. Representative results were observed from at least three independent experiments. Source data are provided as a Source Data file.

Dusp18 expression = assay: qPCR of Dusp18 mRNA in RAW264.7 cells; assay type: cell-based, mouse; details: U73122 10 µM, Staurosporine 0.25 µM, LY3214996 20 µM, SB203580 10 µM for 1 h, then Kp-10 30 min
Description: Anti-Flag IP of lysates derived from 293 T cells transfected with GPR54-flag and Src-HA constructs (d) and quantification results (e). Anti-Flag IP of lysates derived from 293 T cells transfected with GPR54-flag and DUSP18-HA constructs (f) and quantification results (g). Anti-Flag IP of lysates derived from 293 T cells transfected with Src-HA, and DUSP18-flag constructs (h) and quantification results (i). j, k IB analysis of lysates derived from WT BMMs and Gq/11 KO BMMs with or without Kp-10 treatment for 1 h (j) and quantification of results (k). l Working model of Kp-10 /Gpr54 mediated Src dephosphorylation. […] However, both active Src and DUSP18 were recruited by GPR54 through the PR motif in GPR54 CT along with the increase of Kp-10 dose (1, 10 nM). […] Data represent means ± SEM. P values were determined by one-way ANOVA analysis (b, c, e, g, i, k). Representative results were obtained from at least three independent experiments. Source data are provided as a Source Data file.
Total RNA was extracted from RAW264.7 cells using TRIzol® (TaKaRa) and then reverse transcribed into cDNA using the PrimeScript RT-PCR Kit (TaKaRa, RR014) according to the manufacturer’s instructions. The cDNA products were used for quantitative PCR analysis by SYBR Mix (TaKaRa, RR064). Sequences of the indicated primers are described in Supplementary Table 2.

SH3 domain of Src = assay: SH3 domain protein-binding array; details: TranSignal SH3 Domain Array, GST-GPR54 CT overnight at 4 °C
Procedure: SH3 domain protein-binding array was performed using TranSignal™ SH3 Domain Array kit (Cat. #MA3010). The kit was purchased from Panomics, and probed using GST-GPR54 CT. Purified different SH3 domain-containing proteins including the Src kinase family were spotted in duplicate on the membrane filter and tested for their binding to GST-GPR54 CT. Briefly, membrane filters were incubated with […] GST-GPR54 CT protein overnight at 4 °C. After washing the membrane, the GST antibody was incubated overnight at 4 °C. Protein binding was visualized by incubation with an HRP-conjugated antibody. Spots with stronger intensities indicated a higher binding affinity of GST-GPR54 CT with the SH3 domain-containing protein (s). SH3 domain proteins in the array were summarized in Supplementary Table 3.

His-DUSP18 = target: B2; assay: SPR; Biacore T200, DUSP18 protein immobilised on CM5 by amine coupling (25 ug/mL, pH 7.4, PBS); 25 °C, 30 µl/minute, PBS with 0.05% Tween-20; kinetics analysis, 1:1 model; details: both partners purified
[2] = target: T1, His-SRC protein, Src (G85-L536) (human, UniProt P12931 85-536); assay: SPR; Biacore T200, DUSP18 and Src; which of the two was immobilised is not told; 25 °C, 30 µl/minute, PBS with 0.05% Tween-20; kinetics analysis, 1:1 model; details: both partners purified
T1 construct: human Src, G85-L536, in pFastBac HT B; In the SPR it is called 'SRC protein'; removal of the tag is not mentioned; source: Sf9 (Bac-to-Bac baculovirus), purified; not shown: His6, N-terminal, kept

Src (Y416) = assay: in vitro phosphatase activity assay with Src; assay type: biochemical, human; details: purified proteins; 30 min at 30 °C; Western blot
Procedure: The C terminus of human GPR54 (H329- L398) and mouse Gpr54 (R331- L396) cDNAs were subcloned into a pGEX-4T2 vector. For purification of full-length WT human DUSP18 and DUSP18 (C104S) proteins, DUSP18 was cloned into pMCSG7 vector. For purification of Src (G85-L536) protein, cDNAs of human Src were subcloned into pFastBac HT B vector with an N-terminal 6xHis tag and expressed in Sf9 cells (Expression Systems) using the Bac-to-Bac Baculovirus Expression System (Invitrogen) for 48 h. For purification of the Src (G85-V247)-GPR54 (333–356 with C338S, C340S mutation) recombinant fusion protein, the C-terminus of GPR54 (333–356 with C338S and C340S mutation) was linked to the C terminus of Src SH3-SH2 domain (G85-V247), which was subcloned into the pMCSG7 vector.
For the total phosphatase activity assay, the Co-IP experiment was carried out after Kp-10 treatment of RAW264.7 cells for 20 min, followed by lysis and incubation with the Gpr54 antibody. The assay was performed according to the phosphatase assay kit (Sigma-Aldrich,17-313). For the DUSP18 phosphatase activity assay, His-DUSP18 and His-DUSP18 (C104S) were purified from E Coli, and His-Src was purified from Sf9 insect cells. His-DUSP18 and His-DUSP18 (C104S) were incubated with His-Src in 1x phosphatase buffer (20 mM HEPES, 20 mM MgCl2, 0.03% β-mercaptoethanol)[51] for 30 min at 30 °C with gentle shaking. […]

Molecule: CN1CCN(CCOc2cc(OC3CCOCC3)c3c(Nc4c(Cl)ccc5c4OCO5)ncnc3c2)CC1 [Saracatinib]
effect on Kp-10 induced interaction of Src with DUSP18 (Src / DUSP18 interaction; 293T, inhibitor 1 h (U73122 10 µM, Staurosporine 0.25 µM, LY3214996 10 µM, KN-93 10 µM, Saracatinib 10 µM), then 10 nM Kp-10 20 min): obvioulsly dampened | effect on Kp-10 induced interaction of GPR54 with Src (GPR54 / Src interaction): obvioulsly dampened | effect on Kp-10 induced interaction of GPR54 with DUSP18 [1]: obvioulsly dampened

Molecule: Cn1nccc1Nc1nccc(-c2cc3c(s2)C(C)(C)N(CCN2CCOCC2)C3=O)n1 [LY3214996]
effect on Kp-10 induced interaction of GPR54 with Src (GPR54 / Src interaction): not by the inhibitors | expression of Dusp18 (mRNA) (Dusp18 expression): inhibited

Molecule: CN[C@@H]1C[C@H]2O[C@@](C)([C@@H]1OC)n1c3ccccc3c3c4c(c5c6ccccc6n2c5c31)C(=O)NC4 [Staurosporine]
effect on Kp-10 induced interaction of GPR54 with Src (GPR54 / Src interaction): not by the inhibitors | expression of Dusp18 (mRNA) (Dusp18 expression): inhibited

Molecule: GPR54 CT: C terminus of human GPR54 (H329- L398)
interaction with SH3 domains (SH3 domain of Src): interacted with the SH3 domain of Src most obviously

Molecule: B1
Kd (His-DUSP18): 1800 nM

Molecule: B2
Kd [2]: 5.9 nM

Molecule: B3
interaction with Src by Co-IP (Src / DUSP18 interaction; anti-Flag IP, 293T cells transfected with HA-Src): eliminated the interaction with Src | dephosphorylation of Src (Y416) (Src (Y416)): had no activity
